Our source for the EC50 values is patent publication US9249180B2, “C-3 alkyl and alkenyl modified betulinic acid derivatives” (priority 2013, dated 2016).

This assay concerns recombinant NL4-3 virus (Renilla luciferase in nef, Gag P373S; NLRluc) in MT-2 cells. As to the kind of experiment: HIV Cell Culture Assay (luciferase reporter, antiviral activity). It counts as cell-based. As to conditions: Renilla, NL43, MT-2 cells infected for 4-5 days with NLRluc recombinants, serial dilutions of the inhibitor. The procedure: HIV Cell Culture Assay—MT-2 cells and 293T cells were obtained from the NIH AIDS Research and Reference Reagent Program. MT-2 cells were propagated in RPMI 1640 media supplemented with 10% heat inactivated fetal bovine serum, […]. The 293T cells were propagated in DMEM media supplemented with 10% heat inactivated fetal bovine serum (FBS), 100 units/ml penicillin G and 100 μg/ml streptomycin. The proviral DNA clone of NL4-3 was obtained from the NIH AIDS Research and Reference Reagent Program. A recombinant NL4-3 virus, in which a section of the nef gene from NL4-3 was replaced with the Renilla luciferase gene, was used as a reference virus. In addition, residue Gag P373 was converted to P373S. Briefly, the recombinant virus was prepared by transfection of the altered proviral clone of NL4-3. Transfections were performed in 293T cells using LipofectAMINE PLUS from Invitrogen (Carlsbad, Calif.), according to manufacturer's instruction. The virus was titered in MT-2 cells using luciferase enzyme activity as a marker. Luciferase was quantitated using the Dual Luciferase kit from Promega (Madison, Wis.), with modifications to the manufacturer's protocol. The diluted Passive Lysis solution was pre-mixed with the re-suspended Luciferase Assay Reagent and the re-suspended Stop & Glo Substrate (2:1:1 ratio). Fifty (50) μL of the mixture was added to each aspirated well on assay plates and luciferase activity was measured immediately on a Wallac TriLux (Perkin-Elmer). Antiviral activities of inhibitors toward the recombinant virus were quantified by measuring luciferase activity in cells infected for 4-5 days with NLRluc recombinants in the presence serial dilutions of the inhibitor.
(Reporter assays use an easily measured gene product as a stand-in for the process of interest.)

In general, EC50 refers to the concentration needed to bring the measured effect to its halfway point.

As to `CC(C)[C@@H]1CC[C@]2(NCCN3CCS(=O)(=O)CC3)CC[C@]3(C)[C@H](CC[C@@H]4[C@@]5(C)CCC(CCCCC(=O)O)C(C)(C)[C@@H]5CC[C@]43C)[C@@H]12` (stereo partly drawn) [Example 16, 5-((1S,3aS,5aR,5bR,7aS,11aS,11bR,13aR,13bR)-3a-((2-(1,1-dioxidothiomorpholino)ethyl)amino)-1-isopropyl-5a,5b,8,8,11a-pentamethylicosahydro-1H-cyclopenta[a]chrysen-9-yl)pentanoic acid], the concentration giving a half-maximal response (EC50) turned out to be 1 nM. In the case of `C=C(C)[C@@H]1CC[C@]2(NCCN3CCS(=O)(=O)CC3)CC[C@]3(C)[C@H](CC[C@@H]4[C@@]5(C)CC=C(CCC(C)(C)CC(=O)NO)C(C)(C)[C@@H]5CC[C@]43C)[C@@H]12` [Example 12, 5-((1R,3aS,5aR,5bR,7aR,11aS,11bR,13aR,13bR)-3a-((2-(1,1-dioxidothiomorpholino)ethyl)amino)-5a,5b,8,8,11a-pentamethyl-1-(prop-1-en-2-yl)-2,3,3a,4,5,5a,5b,6,7,7a,8,11,11a,11b,12,13,13a,13b-octadecahydro-1H-cyclopenta[a]chrysen-9-yl)-N-hydroxy-3,3-dimethylpentanamide] it was 2 nM. In the case of `C=C(C)[C@@H]1CC[C@]2(NCCN3CCS(=O)(=O)CC3)CC[C@]3(C)[C@H](CC[C@@H]4[C@@]5(C)CC=C(CC6CCC(C(=O)O)CC6)C(C)(C)[C@@H]5CC[C@]43C)[C@@H]12` (stereo partly drawn) [Example 1, 4-(((1R,3aS,5aR,5bR,7aR,11aS,11bR,13aR,13bR)-3a-((2-(1,1-dioxidothiomorpholino)ethyl)amino)-5a,5b,8,8,11a-pentamethyl-1-(prop-1-en-2-yl)-2,3,3a,4,5,5a,5b,6,7,7a,8,11,11a,11b,12,13,13a,13b-octadecahydro-1H-cyclopenta[a]chrysen-9-yl)methyl)cyclohexanecarboxylic acid] it was 2.96 nM; in that of `C=C(C)[C@@H]1CC[C@]2(NCCN3CCS(=O)(=O)CC3)CC[C@]3(C)[C@H](CC[C@@H]4[C@@]5(C)CC=C(CCC(C)(C)CC(=O)O)C(C)(C)[C@@H]5CC[C@]43C)[C@@H]12` [Example 6, 5-((1R,3aS,5aR,5bR,7aR,11aS,11bR,13aR,13bR)-3a-((2-(1,1-dioxidothiomorpholino)ethyl)amino)-5a,5b,8,8,11a-pentamethyl-1-(prop-1-en-2-yl)-2,3,3a,4,5,5a,5b,6,7,7a,8,11,11a,11b,12,13,13a,13b-octadecahydro-1H-cyclopenta[a]chrysen-9-yl)-3,3-dimethylpentanoic acid], 1.38 nM. On to `C=C(C)[C@@H]1CC[C@]2(NCCN3CCS(=O)(=O)CC3)CC[C@]3(C)[C@H](CC[C@@H]4[C@@]5(C)CC=C(CCC(C)(C)CC(=O)NC#N)C(C)(C)[C@@H]5CC[C@]43C)[C@@H]12` [Example 14, N-cyano-5-((1R,3aS,5aR,5bR,7aR,11aS,11bR,13aR,13bR)-3a-((2-(1,1-dioxidothiomorpholino)ethyl)amino)-5a,5b,8,8,11a-pentamethyl-1-(prop-1-en-2-yl)-2,3,3a,4,5,5a,5b,6,7,7a,8,11,11a,11b,12,13,13a,13b-octadecahydro-1H-cyclopenta[a]chrysen-9-yl)-3,3-dimethylpentanamide], for which the 50% effective concentration (EC50) came to 4.7 nM. As to `C=C(C)[C@@H]1CC[C@]2(NCCN3CCS(=O)(=O)CC3)CC[C@]3(C)[C@H](CC[C@@H]4[C@@]5(C)CC=C(CCCC(=O)O)C(C)(C)[C@@H]5CC[C@]43C)[C@@H]12` [Example 11, 4-((1R,3aS,5aR,5bR,7aR,11aS,11bR,13aR,13bR)-3a-((2-(1,1-dioxidothiomorpholino)ethyl)amino)-5a,5b,8,8,11a-pentamethyl-1-(prop-1-en-2-yl)-2,3,3a,4,5,5a,5b,6,7,7a,8,11,11a,11b,12,13,13a,13b-octadecahydro-1H-cyclopenta[a]chrysen-9-yl)butanoic acid], the concentration for a half-maximal effect (EC50) worked out at 10 nM.
